pIC50, pKi: −log10 of the molar value.
What was measured:
human FLAP = human FLAP (Homo sapiens (Human), UniProt P20292); assay: FLAP binding assay (HTRF); settings: human FLAP-containing membranes, HTRF format; average of two assay plates, duplicates; read-out: FLAP Binding wild type HTRF Ki
How it was run: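 Binding values are averages from two separate assay plates, with each sample run in duplicate per plate. Data are expressed as an HTRF ratio.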

[1] = system: leukotriene pathway in human whole blood (LTB4 levels); assay: Human whole blood assay (LTB4); type: cell-based; settings: human whole blood diluted 1:1 in RPMI, stimulated with calcium ionophore A23187; single replicate
How it was run: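 Heparinised human whole blood, diluted 1:1 in RPMI, was pre-incubated with test compounds for 15 min at 37° Celsius, then stimulated with A23187 (7 μg/mL) for 30 min at 37° Celsius. Plasma LTB4 was measured by immunoassay kit; IC50 from 4-parameter fit; single replicate, at least one healthy donor.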

Chain of human FLAP (P20292 whole entry): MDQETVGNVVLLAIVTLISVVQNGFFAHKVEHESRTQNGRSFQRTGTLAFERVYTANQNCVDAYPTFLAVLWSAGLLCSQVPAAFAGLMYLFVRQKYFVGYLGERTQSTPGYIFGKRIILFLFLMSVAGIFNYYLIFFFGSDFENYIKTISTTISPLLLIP

Compound	pKi (human FLAP)	pIC50 [1]
CC(C)(C)c1ccc(-c2cnc(N)cn2)c(F)c1Oc1nccc(N)n1 [Example 203, 2-[3-(5-Aminopyrazin-2-yl)-6-tert-butyl-2-fluorophenoxy]pyrimidin-4-amine]	8.16	7.51
COc1cc(Oc2c(C(C)(C)C)ccc(-c3cnc(N)cn3)c2F)ncn1 [Example 204, 5-{4-tert-Butyl-2-fluoro-3-[(6-methoxypyrimidin-4-yl)oxy]phenyl}pyrazin-2-amine]	7.09	6.77
COc1c(C(C)(C)C)ccc(-c2cnc(N)cn2)c1F [Example 205, 5-(4-tert-Butyl-2-fluoro-3-methoxyphenyl)pyrazin-2-amine]	7.40	6.83
CC(C)(C)c1ccc(-c2cnc(N)nc2)c(F)c1Oc1ncccn1 [Example 207, 5-[4-tert-Butyl-2-fluoro-3-(pyrimidin-2-yloxy)phenyl]pyrimidin-2-amine]	7.32	7.14
CC(C)(C)c1ccc(-c2cnc(N)nc2)c(F)c1Oc1cc(N)ncn1 [Example 208, 5-{3-[(6-Aminopyrimidin-4-yl)oxy]-4-tert-butyl-2-fluorophenyl}pyrimidin-2-amine]	7.33	6.67
CC(C)(C)c1ccc(-c2cnc(N)nc2)c(F)c1Oc1nccc(N)n1 [Example 209, 5-{3-[(4-Aminopyrimidin-2-yl)oxy]-4-tert-butyl-2-fluorophenyl}pyrimidin-2-amine]	7.63	7.29
Nc1cnc(-c2ccc(C3CCCC3)c(OCc3ccccc3)c2F)cn1 [Example 212, 5-[3-(Benzyloxy)-4-cyclopentyl-2-fluorophenyl]pyrazin-2-amine]	7.19	5.96
CC(C)Oc1c(C2CCCC2)ccc(-c2cnc(N)cn2)c1F [Example 213, 5-[4-Cyclopentyl-2-fluoro-3-(1-methylethoxy)phenyl]pyrazin-2-amine]	7.04	5.99
Fc1c(-c2cnc3[nH]ccc3n2)ccc(C2CCCC2)c1OCc1ccccc1 [Example 214, 2-[3-(Benzyloxy)-4-cyclopentyl-2-fluorophenyl]-5H-pyrrolo[2,3-b]pyrazine]	7.51	5.96
COc1c(C2CCC2)ccc(-c2cnc(N)c(C#N)n2)c1F [Example 218, 3-amino-6-(4-cyclobutyl-2-fluoro-3-methoxyphenyl)-pyrazine-2-carbonitrile]	7.11	< 5.30
Oc1c(C2CCC2)ccc(-c2cnc3[nH]ccc3c2)c1F [Example 220, 6-cyclobutyl-2-fluoro-3-(1H-pyrrolo[2,3-b]pyridin-5-yl)phenol]	7.66	5.95
Nc1cnc(-c2ccc(C3CCC3)c(Oc3ccnc(Oc4c(C5CCC5)ccc(-c5cnc(N)cn5)c4F)n3)c2F)cn1 [Example 224, 5,5′-((pyrimidine-2,4-diylbis(oxy))bis(4-cyclobutyl-2-fluoro-3,1-phenylene))bis(pyrazin-2-amine)]	7.63	6.54
Fc1c(-c2cnc3c(c2)OCCN3)ccc(C2CCC2)c1Oc1ncccn1 [Example 225, 7-(4-cyclobutyl-2-fluoro-3-(pyrimidin-2-yloxy)phenyl)-3,4-dihydro-2H-pyrido[3,2-b][1,4]oxazine]	8.60	7.16
Nc1ccnc(Oc2c(C3CCC3)ccc(-c3cnc4c(c3)OCCN4)c2F)n1 [Example 226, 2-(6-cyclobutyl-3-(3,4-dihydro-2H-pyrido[3,2-b][1,4]oxazin-7-yl)-2-fluorophenoxy)pyrimidin-4-amine]	8.85	7.05
COc1cc(Oc2c(C3CCC3)ccc(-c3cnc4c(c3)OCCN4)c2F)ncn1 [Example 227, 7-(4-cyclobutyl-2-fluoro-3-((6-methoxypyrimidin-4-yl)oxy)phenyl)-3,4-dihydro-2H-pyrido[3,2-b][1,4]oxazine]	8.07	6.48
COc1cc(Oc2c(C3CCC3)ccc(-c3cnc4[nH]ccc4n3)c2F)ncn1 [Example 229, 2-(4-cyclobutyl-2-fluoro-3-((6-methoxypyrimidin-4-yl)oxy)phenyl)-5H-pyrrolo[2,3-b]pyrazine]	8.11	6.39
Fc1c(-c2cnc3[nH]ccc3n2)ccc(C2CCC2)c1Oc1ncccn1 [Example 230, 2-(4-cyclobutyl-2-fluoro-3-(pyrimidin-2-yloxy)phenyl)-5H-pyrrolo[2,3-b]pyrazine]	8.60	6.62
N#Cc1nccc(Oc2c(C3CCC3)ccc(-c3cnc(N)cn3)c2F)n1 [Example 234, 4-(3-(5-Aminopyrazin-2-yl)-6-cyclobutyl-2-fluorophenoxy)pyrimidine-2-carbonitrile]	5.89	< 5.00

Compound	pKi (human FLAP)	pIC50 [1]
Cc1nc(Oc2c(C3CCC3)ccc(-c3cnc(N)cn3)c2F)cc(N(C)C)n1 [Example 235, 6-(3-(5-Aminopyrazin-2-yl)-6-cyclobutyl-2-fluorophenoxy)-N,N,2-trimethylpyrimidin-4-amine]	8.48	6.95
Cc1cc(Oc2c(C3CCC3)ccc(-c3cnc(N)cn3)c2F)nc(N(C)C)n1 [Example 236, 4-(3-(5-Aminopyrazin-2-yl)-6-cyclobutyl-2-fluorophenoxy)-N,N,6-trimethylpyrimidin-2-amine]	8.66	7.43
CN(C)c1cc(Oc2c(C3CCC3)ccc(-c3cnc(N)cn3)c2F)ncn1 [Example 237, 6-(3-(5-Aminopyrazin-2-yl)-6-cyclobutyl-2-fluorophenoxy)-N,N-dimethylpyrimidin-4-amine]	8.48	7.07
CCOC(=O)c1c(C(F)(F)F)nn(C)c1Oc1c(C2CCC2)ccc(-c2cnc(N)cn2)c1F [Example 238, Ethyl 5-(3-(5-aminopyrazin-2-yl)-6-cyclobutyl-2-fluorophenoxy)-1-methyl-3-(trifluoromethyl)-1H-pyrazole-4-carboxylate]	6.81	6.24
CS(=O)(=O)c1ccc(Oc2c(C3CCC3)ccc(-c3cnc(N)cn3)c2F)nc1 [Example 239, 5-(4-cyclobutyl-2-fluoro-3-((5-(methylsulfonyl)pyridin-2-yl)oxy)phenyl)pyrazin-2-amine]	8.08	6.71
CC(C)(C)c1cc(Oc2c(C3CCC3)ccc(-c3cnc(N)cn3)c2F)nc(N)n1 [Example 240, 4-(3-(5-aminopyrazin-2-yl)-6-cyclobutyl-2-fluorophenoxy)-6-(tert-butyl)pyrimidin-2-amine]	7.63	6.98
Nc1cnc(-c2ccc(C3CCC3)c(Oc3nccc(N4CCC5(CC4)OCCCO5)n3)c2F)cn1 [Example 241, 5-(3-((4-(1,5-dioxa-9-azaspiro[5.5]undecan-9-yl)pyrimidin-2-yl)oxy)-4-cyclobutyl-2-fluorophenyl)pyrazin-2-amine]	8.92	7.68
CC(C)Cc1cc(Oc2c(C3CCC3)ccc(-c3cnc(N)cn3)c2F)nc(N)n1 [Example 242, 4-(3-(5-aminopyrazin-2-yl)-6-cyclobutyl-2-fluorophenoxy)-6-isobutylpyrimidin-2-amine]	8.44	7.52
CS(=O)(=O)NCCOc1c(C2CCC2)ccc(-c2cnc(N)cn2)c1F [Example 243, N-(2-(3-(5-Aminopyrazin-2-yl)-6-cyclobutyl-2-fluorophenoxy)-ethyl)-methane-sulfonamide]	6.63	6.07
Nc1cnc(-c2ccc(C3CCC3)c(OCCN3CCOCC3)c2F)cn1 [Example 244, 5-(4-Cyclobutyl-2-fluoro-3-(2-morpholinoethoxy)phenyl)pyrazin-2-amine]	6.34	5.74
CCOC(=O)CCCOc1c(C2CCC2)ccc(-c2cnc(N)cn2)c1F [Example 245, Ethyl 4-(3-(5-aminopyrazin-2-yl)-6-cyclobutyl-2-fluorophenoxy)butanoate]	7.21	5.55
CC(C)(C)OC(=O)N1CC(COc2c(C3CCC3)ccc(-c3cnc(N)cn3)c2F)C1 [Example 246, tert-butyl-3-((3-(5-aminopyrazin-2-yl)-6-cyclobutyl-2-fluorophenoxy)-methyl)azetidine-1-carboxylate]	7.01	5.80
CC(C)(C)OC(=O)N1CCCC1COc1c(C2CCC2)ccc(-c2cnc(N)cn2)c1F (stereo not drawn) [Example 248, tert-butyl 2-((3-(5-aminopyrazin-2-yl)-6-cyclobutyl-2-fluorophenoxy)methyl)pyrrolidine-1-carboxylate]	6.58	5.00
CC(C)(C)OC(=O)N1CCCC(COc2c(C3CCC3)ccc(-c3cnc(N)cn3)c2F)C1 (stereo not drawn) [Example 249, tert-Butyl 3-((3-(5-aminopyrazin-2-yl)-6-cyclobutyl-2-fluorophenoxy)methyl)piperidine-1-carboxylate]	6.68	5.90
Nc1cnc(-c2ccc(C3CCC3)c(OCCO)c2F)cn1 [Example 250, 2-(3-(5-Aminopyrazin-2-yl)-6-cyclobutyl-2-fluorophenoxy)ethanol]	7.00	6.45
Nc1cnc(-c2ccc(C3CCC3)c(OCC3CCCO3)c2F)cn1 (stereo not drawn) [Example 252, 5-(4-Cyclobutyl-2-fluoro-3-((tetrahydrofuran-2-yl)methoxy)phenyl)pyrazin-2-amine]	7.53	< 6.00
Nc1cnc(-c2ccc(C3CCC3)c(Oc3ccnnc3)c2F)cn1 [Example 257, 5-(4-Cyclobutyl-2-fluoro-3-(pyridazin-4-yloxy)phenyl)pyrazin-2-amine]	7.51	6.48
Nc1cnc(-c2ccc(C3CCC3)c(Oc3nccnc3N)c2F)cn1 [Example 258, 3-(3-(5-Aminopyrazin-2-yl)-6-cyclobutyl-2-fluorophenoxy)pyrazin-2-amine]	8.42	8.00
